Experiment: logP determination by HPLC on a reversed-phase column (C 18), EEC Directive 79/831 Annex V.A8
Format: physicochemical
Details: HPLC reversed-phase C 18, 40° C., 0.1% aqueous formic acid and acetonitrile, gradient 10% to 90% acetonitrile
Method: In the table 1, the logP values were determined in accordance with EEC Directive 79/831 Annex V.A8 by HPLC (High Performance Liquid Chromatography) on a reversed-phase column (C 18), using the method described below: Temperature: 40° C.; Mobile phases: 0.1% aqueous formic acid and acetonitrile; linear gradient from 10% acetonitrile to 90% acetonitrile. Calibration was carried out using unbranched alkan-2-ones (comprising 3 to 16 carbon atoms) with known logP values (determination of the logP values by the retention times using linear interpolation between two successive alkanones).

| SMILES | logP |
| --- | --- |
| Cn1cc(C(=O)N(CCOc2c(Cl)cc(Cl)cc2Cl)C2CCCC2)c(C(F)F)n1 [Example 24] | 4.72 |
| CC(COc1ccc(Cl)cc1Cl)N(C(=O)c1cn(C)nc1I)C1CC1 (centres unmarked) [Example 19] | 3.78 |

From patent publication US8841332B2, “Fungicidal N-(2-phenoxyethyl)carboxamide derivatives and their aza, thia and sila analogues” (Bayer Intellectual Property GmbH, priority 2008, dated 2014)
